The values below come from patent publication US6903132B2, “Non-peptide GnRH agents, pharmaceutical compositions and methods for their use” (Agouron Pharmaceuticals, Inc., priority 2002, dated 2005).

Series [1] has as its target T1, human GnRH receptors (Homo sapiens, UniProt P30968).
T1 construct: expressed in transfected cells; host or cells: HEK 293
T1 sequence (P30968 1-328): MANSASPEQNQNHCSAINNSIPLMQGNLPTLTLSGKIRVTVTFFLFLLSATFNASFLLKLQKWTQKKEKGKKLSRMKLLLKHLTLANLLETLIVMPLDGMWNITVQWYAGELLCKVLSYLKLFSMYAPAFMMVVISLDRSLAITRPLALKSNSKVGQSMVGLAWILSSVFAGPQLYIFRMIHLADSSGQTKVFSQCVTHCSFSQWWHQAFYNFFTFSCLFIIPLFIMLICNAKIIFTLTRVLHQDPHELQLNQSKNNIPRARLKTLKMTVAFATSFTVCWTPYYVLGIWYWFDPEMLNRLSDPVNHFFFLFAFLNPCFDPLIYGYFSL
Briefly: Radioligand binding assay: inhibition of binding of 125I-GnRH-A to GnRH receptors (membranes). Particulars: Human GnRH receptor; competition with 125I-GnRH-A; Ki calculated from IC50 (Cheng et al.). Put shortly: (§1)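 Membranes from HEK 293 expressing mouse or human receptor, or rat pituitaries, incubated 1 h at RT with ~0.04–0.06 nM ¹²⁵I-[des-Gly¹⁰,D-Ala⁶]GnRH ethylamide and competitor (0.1–10,000 nM) in HEPES pH 7.4 with MgCl2, EDTA, BSA. Filtration onto PEI-soaked GF/C filters, scintillation counting; Ki from IC50 by Cheng–Prusoff.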

Series [2] has as its target T2, mouse GnRH receptors (Mus musculus, UniProt Q01776).
T2 construct: expressed in transfected cells; host or cells: HEK 293
T2 sequence (Q01776 1-327): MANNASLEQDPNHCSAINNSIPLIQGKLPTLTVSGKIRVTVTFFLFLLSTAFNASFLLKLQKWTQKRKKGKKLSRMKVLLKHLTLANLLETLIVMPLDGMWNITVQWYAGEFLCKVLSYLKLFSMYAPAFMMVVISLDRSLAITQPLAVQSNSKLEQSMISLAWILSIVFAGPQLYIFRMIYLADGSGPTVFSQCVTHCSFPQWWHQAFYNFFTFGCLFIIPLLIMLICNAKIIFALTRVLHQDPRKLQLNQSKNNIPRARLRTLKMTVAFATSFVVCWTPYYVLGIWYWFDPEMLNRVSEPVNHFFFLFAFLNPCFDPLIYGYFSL
Described as above. The note with it: Mouse GnRH receptor; competition with 125I-GnRH-A; Ki calculated from IC50 (Cheng et al.). Put shortly: as §1

For series [3], the target named is T3, rat GnRH receptor (Rattus norvegicus, UniProt P30969).
T3 construct: rat pituitaries (Pel Freez Biologicals, Rogers, Ark.) are homogenized in buffer A; tissue Pel Freez Biologicals; host or cells: rat pituitaries
T3 sequence (P30969 1-327): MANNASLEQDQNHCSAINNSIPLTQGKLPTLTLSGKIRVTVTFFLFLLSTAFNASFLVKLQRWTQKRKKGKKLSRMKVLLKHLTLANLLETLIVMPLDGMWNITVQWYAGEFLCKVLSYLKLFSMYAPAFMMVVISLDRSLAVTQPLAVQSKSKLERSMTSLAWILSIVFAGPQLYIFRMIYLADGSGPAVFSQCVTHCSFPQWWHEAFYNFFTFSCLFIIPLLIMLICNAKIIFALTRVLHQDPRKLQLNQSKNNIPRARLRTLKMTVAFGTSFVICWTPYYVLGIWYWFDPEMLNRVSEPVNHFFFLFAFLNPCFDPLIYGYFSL
The series is described as above. Particulars: competition with 125I-GnRH-A, Ki calculated from IC50 (Cheng et al.). Put shortly:
as §1

Series [4] can be described thus: In vitro metabolism: disappearance of parent compound in liver microsomes. It is filed as in vitro ADME. Particulars: human liver microsomes; 5 uM compound, 0.5 mg/ml microsomal protein, 2 mM NADPH, 30 minutes at 37° C. Here is the method: (§2) Human, rat, dog, and monkey liver microsomes are isolated by differential centrifugation. Specimens of human liver were obtained from the International Institute for the Advancement of Medicine (Scranton, Pa.). The disappearance of the parent compound is studied in a mixture containing 5 uM compound, 0.5 mg/ml microsomal protein, and 2 mM NADPH in 50 mM K Phosphate buffer, pH 7.4. Samples are incubated for 30 minutes at 37° C. The reaction is terminated by the addition of acetonitrile and compounds analyzed by LC-MS as described above.
(In general: Microsomes from liver hold many membrane-bound enzymes, among them those of drug oxidation.)

Series [5] can be described thus: In vitro metabolism: disappearance of parent compound in liver microsomes (male rat). It is filed as in vitro ADME. Particulars: 5 uM compound, 0.5 mg/ml microsomal protein, 2 mM NADPH, 30 minutes at 37° C. Here is the method:
as §2

The nature of series [6]: In vitro metabolism: disappearance of parent compound in liver microsomes (female rat). It is filed as in vitro ADME. The note with it: 5 uM compound, 0.5 mg/ml microsomal protein, 2 mM NADPH, 30 minutes at 37° C. Here is the method: as §2
Series [7] can be described thus: Pharmacokinetics in female rats. The series is classed as in vivo, rat. Particulars: for FR Fp.o.: AUCp.o./AUCi.v.; for Tmax: rat, plasma, po, dose and vehicle per footnote, read-out: FR Tmax hr. The procedure:
Rats (male or female, 200-225 g) are prepared with indwelling jugular vein cannula as described by Harms et al., Applied Physiol. 36:391-398 (1974), and allowed to recover overnight with free access to the standard vivarium chow and water. […] […] The blood samples are withdrawn at specific times, plasma is immediately separated and compound extracted with ethyl acetate. The samples are analyzed by LC-MS using 30-90% gradient of ACN in 50 mM ammonium acetate.
The pharmacokinetic parameters are calculated using WinNonlin software (Scientific Consulting Inc.). The bioavailability is calculated as AUCp.o./AUCi.v., where AUCp.o. and AUCi.v. are areas under the plasma concentration-time curve after oral and i.v. administration, respectively.

pKi: −log10 of the molar value.

By pKi is commonly meant the Ki on a negative log10 scale, so that one unit is a factor of ten. A word on the Tmax: it is the time from dosing to the highest level. Regarding `Cc1cc2c(cc1Cc1ccc(C(=O)NNc3cc(C)c4c(C)nn(C)c4n3)o1)C(C)(C)OC2(C)C` [Example E1, 5-[(1,1,3,3,6-pentamethyl-1,3-dihydro-2-benzofuran-5-yl)methyl]-N′-(1,3,4-trimethyl-1H-pyrazolo[3,4-b]pyridin-6-yl)-2-furohydrazide], the values for the negative logarithm of the Ki (pKi) in series [1], in series [2] and in series [3] were 8.38, 7.92 and 8.05, respectively. For the same molecule, the “Huma % p. 30′” value in series [4] is given as 43%. For the same molecule, the “Male t % p. 30′” value in series [5] was found to be 96%. Also, the “Fem. t % rem. 30′” value in series [6] amounted to 27%. In addition, the “FR Fp.o.” value in series [7] (10 mg/kg as 5 mg/ml solution in 10% EtOH 10% cremophor 80% saline) is on record as 57%^4. In series [7], the Tmax amounted to 60 min.

For `Cc1ccc(C(C)(C)C)cc1Cc1ccc(C(=O)NNc2cc(C)c3c(C)nn(C)c3n2)o1` [Example J7, 5-[5-(tert-butyl)-2-methylbenzyl]-N′-(1,3,4-trimethyl-1H-pyrazolo[3,4-b]pyridin-6-yl)-2-furohydrazide], the pKi was 7.46 in series [1], 7.30 in series [2] and 7.70 in series [3]. For the same molecule, the “Huma % p. 30′” value in series [4] came out at 57%. Further, the “Male t % p. 30′” value in series [5] is reported as 89%. The “Fem. t % rem. 30′” value in series [6] turned out to be 9%. The “FR Fp.o.” value in series [7] (10 mg/kg as 5 mg/ml solution in 10% DMSO 105 cremophor 80% saline) was 4%^2. Further, the Tmax in series [7] came out at 30 min.
